Results as given in patent publication US20240180881A1, “METHODS FOR DECREASING RESISTANCE TO CHEMOTHERAPY” (National Institute of Immunology, priority 2022, published 2024).
One block for each compound: values may come before it.

Assays:
His-RAD54 WT [1] = target: T1, His-RAD54 WT (Homo sapiens, UniProt Q92698); assay: Octet Bio-Layer Interferometry (BLI) binding; details: His-RAD54 WT immobilized onto Ni-NTA-sensor, 25° C.; read-out: affinity constant (KD)
T1 construct: made in house; host or cells: E. coli BL-21 DE3
T1 sequence (Q92698 1-747): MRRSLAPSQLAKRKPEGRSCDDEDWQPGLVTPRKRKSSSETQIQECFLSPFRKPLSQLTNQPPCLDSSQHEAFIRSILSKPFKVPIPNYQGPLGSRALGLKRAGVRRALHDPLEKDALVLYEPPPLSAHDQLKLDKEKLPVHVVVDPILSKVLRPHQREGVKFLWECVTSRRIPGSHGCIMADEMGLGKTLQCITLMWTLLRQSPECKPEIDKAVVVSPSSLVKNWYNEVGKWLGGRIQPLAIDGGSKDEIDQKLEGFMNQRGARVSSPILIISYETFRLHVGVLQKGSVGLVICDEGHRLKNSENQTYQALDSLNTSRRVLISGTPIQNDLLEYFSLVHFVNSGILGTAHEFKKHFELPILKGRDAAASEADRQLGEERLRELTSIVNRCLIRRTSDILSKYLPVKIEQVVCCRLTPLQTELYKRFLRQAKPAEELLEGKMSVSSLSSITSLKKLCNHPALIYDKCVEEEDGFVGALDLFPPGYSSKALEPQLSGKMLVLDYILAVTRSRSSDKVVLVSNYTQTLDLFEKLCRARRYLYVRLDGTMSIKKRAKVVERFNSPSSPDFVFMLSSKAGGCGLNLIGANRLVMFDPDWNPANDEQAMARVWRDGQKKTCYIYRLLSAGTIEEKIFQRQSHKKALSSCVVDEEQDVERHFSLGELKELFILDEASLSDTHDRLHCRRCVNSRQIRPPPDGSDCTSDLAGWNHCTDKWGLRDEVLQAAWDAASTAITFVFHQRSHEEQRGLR
Experimental: The interactions between RAD54 and biotinylated BLM_peptide (181-212) as well as the various compounds were studied using Bio-layer interferometry (BLI) using the Octet K2 system (ForteBio Systems). Approximately, 250 μg of His-tagged RAD54 was immobilized onto a Ni-NTA chip for 600 s and the unbound protein was washed using 10 mM HEPES pH 7.5 buffer. […] Each of the reaction set was then used to check for their association with RAD54 captured on the sensor. The kinetics of the RAD54-BLM interaction was monitored for 180 s each for the association and the dissociation curves by dipping the sensors in a series of increasing concentrations of the BLM_peptide. 500 mM NaCl was used as the dissociation buffer. A control sensor with the immobilized RAD54 was used in parallel and was used to normalize the data. Washing in 350 mM EDTA regenerated the sensors for the next cycle of binding kinetics. The experiments were performed at 25° C. All the real-time data was analysed and KD values were determined using the Octet® Evaluation software using 1:1 fitting curves.

RAD54 = target: T2, RAD54 (Homo sapiens, UniProt Q92698); assay: ATP binding assay; format: biochemical; details: 10 μM compound
T2 construct: GST RAD54 (1-747) (WT); made in house; host or cells: E. coli BL-21 DE3
T2 sequence (Q92698 1-747): T1 sequence (Q92698 1-747)
Experimental: The quantitation of the ATP binding assay was carried out using RAD54 WT, RAD54 WT+BLM_peptide, and RAD54 WT+SCM_peptide. The data is from three independent experiments. Mean±S.D.
The presence of the disruptors also led to a decrease in the ATP binding to RAD54.
A 20 μl reaction was set up with 120 nM of GST-RAD54 and 180 nM of either BLM_peptide or SCM_peptide or BLM (1-212) using 4 μl of 5×ATP binding assay buffer (100 mM Tris-Cl pH 7.5, 50 mM MgCl2, 10 mM MnCl2, 5 mM DTT) and 5 μCi of [γ^32P]dATP. […] Reactions were incubated at 30° C. for 20 minutes and were stopped with 10% TCA and samples were spotted on P81 phosphocellulose paper followed by washing of paper strips with 75 mM orthophosphoric acid. A minimum of 8 washes were given in 20 hrs of 1 hr each including a 12 hr wash. Following this, strips were dehydrated in ethanol for 10 min followed by liquid scintillation counting. Reactions without the substrate were spotted as control and the same process repeated.

His-RAD54 WT [2] = target: T1, His-RAD54 WT; assay: Tryptophan fluorescence assay; format: binding; details: compound, from 10 nM
Experimental: To determine how BLM peptide affects ATP binding and hydrolysis, tryptophan fluorescence assays were carried out using full-length recombinant RAD54 in presence of either BLM_peptide or SCM_peptide (FIG. 2H). Tryptophan fluorescence assays were carried out with RAD54 WT alone or RAD54 WT in presence of the indicated concentrations of either BLM_peptide (upper panel) or SCM_peptide (lower panel). The experiment was repeated three times and one representative experiment has been shown.
RAD54 fluorescence was measured in a fluorometer.
Tryptophan fluorescence measurements were performed on a Fluoromax Spectrofluorimeter (Horiba-Jobin Yvon Fluoromax 4). Recombinant His-RAD54 (500 nM) was excited at 280 nm and the emission intensity monitored at regular intervals from 295 nm to at least 450 nm.

HCT116 IC60 CPTR cells = assay: Soft agar assay; format: cell-based; details: 100 nM compound along with 120 nM of CPT
Experimental: Concentrations of CPT used: 0.140 nM, 20 nM, 50 nM, 1000 nM. Concentration of 1-OHP: 0.14 μM, 2 μM, 4 μM, 6 μM, 8 μM. Concentrations of CDDP used: 0.140 μM, 2 μM, 5 μM, 10 μM. The percentage of viable cells were determined by MTT assays (FIG. 12A-12C). The data in FIG. 12A and FIG. 12C is from three independent experiments and the data in FIG. 12B is from nine independent experiments. […] The levels of MRP2, MRP3, MRP5, MXR were quantitated from three independent experiments. […] Specifically, HCT116 IC60 CPTR cells were transfected with the HR substrate for 72 hours and the levels of HR was determined (FIG. 6A). The data is from three independent experiments. […] The number of soft agar colonies in each condition were counted. The data is from three independent experiments.
3000 cells mixed with 0.4% agar and seeded on top of the 6-well plates pre-coated with 0.8% agar. The resistant cells were treated with 120 nM of CPT. Post-incubation cells were seeded. […] The colonies were then counted after 15 days after staining with 0.25% Crystal Violet.

CT26 cells = assay: Syngeneic or allogenic model, CT26; format: in vivo, BALB/c mice; details: for tumour volume, chemoresistance: CPT + compound
Experimental: Xenografts assays were carried out in BALB/c mice using CT26 cells.
RNA (FIG. 17D) or protein (FIG. 17E) levels of the indicated MDR genes were determined by RT-qPCR or immunoblotting with the indicated antibodies.

- Kd (His-RAD54 WT [1]): 55.8 µM
Structure (SMILES): CC(=O)Nc1nnc(S(N)(=O)=O)s1 [C3, Acetazolamide]
- BLM dependent enhancement of ATP binding by RAD54 (RAD54): decreased BLM dependent enhancement of the binding of ATP by RAD54
- tryptophan fluorescence of RAD54 (His-RAD54 WT [2]): quenched the tryptophan florescence of RAD54 even at 10 nM concentration
- number of soft agar colonies (anchorage independent growth) (HCT116 IC60 CPTR cells): decreased anchorage independent cell growth
- tumour volume, chemoresistance (CT26 cells): reverses chemoresistance

Structure (SMILES): OCCN(CCO)c1nc(N2CCCCC2)c2nc(N(CCO)CCO)nc(N3CCCCC3)c2n1 [C7, Dipyridamole]
- Kd (His-RAD54 WT [1]): 5.04 µM
- BLM dependent enhancement of ATP binding by RAD54 (RAD54): decreased BLM dependent enhancement of the binding of ATP by RAD54
- tryptophan fluorescence of RAD54 (His-RAD54 WT [2]): quenched the tryptophan florescence of RAD54 even at 10 nM concentration
- number of soft agar colonies (anchorage independent growth) (HCT116 IC60 CPTR cells): decreased anchorage independent cell growth
- tumour volume, chemoresistance (CT26 cells): reverses chemoresistance

Structure (SMILES): CN1CCN(C2=Nc3ccccc3Oc3ccc(Cl)cc32)CC1.O=C(O)CCC(=O)O [C17, Loxapine succinate]
- Kd (His-RAD54 WT [1]): 0.0803 µM
- BLM dependent enhancement of ATP binding by RAD54 (RAD54): decreased BLM dependent enhancement of the binding of ATP by RAD54
- tryptophan fluorescence of RAD54 (His-RAD54 WT [2]): quenched the tryptophan florescence of RAD54 even at 10 nM concentration
- number of soft agar colonies (anchorage independent growth) (HCT116 IC60 CPTR cells): decreased anchorage independent cell growth
- tumour volume, chemoresistance (CT26 cells): reverses chemoresistance
- RNA and protein levels of the MDR genes in tumours (CT26 cells; without or with compound treatment): decreased
